Test results taken from BindingDB's records for doi:10.1021/jm9803626 (Dupont Pharmaceuticals, 1999).

Target: T1, Dimer of Gag-Pol polyprotein [489-587] (Human immunodeficiency virus 1, UniProt P04585)
T1 construct: 489-587
Assay: Protease Inhibition Assay
Procedure: Inhibition of HIV protease was measured by assay of the cleavage of a fluorescent peptide substrate. The fluorescent product (2-aminobenzoyl-Ala-Thr-His-Gln-Val-Tyr) was separated from the fluorescent substrate by anion-exchange HPLC on a Mono-Q anion-exchange column (Pharmacia), and fluorescence was monitored at an excitation wavelength of 330 nm and an emission wavelength of 430 nm. Ki values for inhibitor binding were estimated at fixed concentrations of substrate and inhibitor from fractional activity measurements by use of the modified Michaelis-Menten equation.

SMILES	Ki [µM]
O=C1N[C@H](CCc2ccccc2)[C@@H](O)[C@@H](Cc2ccccc2)N1Cc1ccccc1 [(4R,5S,6R)-Tetrahydro-1,6-bis-(phenylmethyl)-5-hydroxy-4-(2-phenylethyl)-2(1H)-pyrimidinone]	0.066
N/C(=N\O)c1cccc(CN2C(=O)N[C@H](CCc3ccccc3)[C@@H](O)[C@H]2Cc2ccccc2)c1 [(4R,5R,6R)-Tetrahydro-1-(3-(N-hydroxycarboximidamide)phenylmethyl)-6-phenylmethyl-5-hydroxy-4-(2-phenylethyl)-2(1H)-pyrimidinone]	0.00024
